Measurements reported in ChEMBL document CHEMBL4321874 (J Med Chem, 2020).
Each block holds one molecule with its values, some of them ahead of it. The source made the active and inactive calls. No cut-off for these calls is given here.

How the values were obtained:
[1] = molecular target: Cyclin-dependent kinase 2/cyclin E1 (Homo sapiens, UniProt P24941); assay: Inhibition of N-terminal GST-tagged full-length human CDK2 (1 to 298 residues)/Cyclin E (1 to 410 residues) expressed in baculovirus expression system using histone H1 as susbtrate after 90 mins by Kinase-Glo luminescence assay
[2] = molecular target: T1, CDC7/DBF4 (Cell division cycle 7-related protein kinase/Activator of S phase kinase) (Homo sapiens, UniProt O00311); assay: Inhibition of N-terminal GST-fused full-length human CDC7 (1 to 574 end residues)/DBF4 (1 to 674 residues) expressed in baculovirus expression system using MCM2 as substrate preincubated with enzyme for 60 mins prior to 50 uM ATP addition by HTRF transcreener ADP assay
COLO 205 [3] = assay: Antiproliferative activity against human COLO205 cells assessed as reduction in cell growth after 3 days by CellTiter-Glo luminescence assay; type: functional, cell-based; details: COLO 205, 72 h
[4] = molecular target: T2, Death-associated protein kinase 1 (Homo sapiens, UniProt P53355); assay: Inhibition of recombinant human N-terminal GST-tagged DAPK1 catalytic domain (1 to 363 residues) expressed in baculovirus expression system by Adapta kinase assay
COLO 205 [5] = assay: Antitumour activity against human COLO205 cells xenografted in Balb/c mouse assessed as inhibition of tumor growth at 50 to 100 mg/kg, po administered BID for 14 days and measured every 2 to 3 days relative to untreated control; type: functional
[6] = molecular target: T1, CDC7/DBF4 (Cell division cycle 7-related protein kinase/Activator of S phase kinase); assay: Inhibition of N-terminal GST-fused full-length human CDC7 (1 to 574 end residues)/DBF4 (1 to 674 residues) expressed in baculovirus expression system using MCM2 as substrate in presence of 50 uM ATP by HTRF transcreener ADP assay
[7] = Toxicity in BALB/c mouse xenografted with human COLO205 cells assessed as effect on body weight at 50 to 100 mg/kg , po adminstered BID for 14 days and measured every 2 to 3 days; type: organism-based; details: in vivo
Mus musculus [8] = assay: In vivo inhibition of CDC7 in BALB/c mouse xenografted with human COLO205 cells assessed as reduction in MCM2 phosphorylation at Ser40/41 residue in tumor at 100 mg/kg, po after 4 hrs by Western blot analysis; type: functional; details: COLO 205, po
[9] = molecular target: Rho-associated protein kinase 1 (Homo sapiens, UniProt Q13464); assay: Inhibition of N-terminal GST-tagged human ROCK1 catalytic domain (1 to 477 residues) expressed in baculovirus expression system using biotin-STK-substrate 2 as substrate preincubated with enzyme for 5 mins followed by ATP addition and measured after 2 hrs by TR-FRET assay
CDK8/Cyclin C = CDK8/Cyclin C (Homo sapiens, UniProt P49336); assay: Inhibition of kinase tracer 236 binding to recombinant full-length human His-tagged CDK8/CyclinC expressed in baculovirus expression system by Lanthascreen Eu kinase binding assay
[10] = Cmax in mouse at 10 mg/kg, po dosed via cassette dosing; type: ADME, organism-based; design: dose 10 mg/kg, route oral; details: in vivo
[11] = molecular target: T3, Dual specificity tyrosine-phosphorylation-regulated kinase 1A (Homo sapiens, UniProt Q13627); assay: Inhibition of recombinant full-length human GST-tagged DYRK1A expressed in baculovirus expression system by Z'-LYTE assay
[12] = molecular target: T4, Dual specificity protein kinase CLK1 (Homo sapiens, UniProt P49759); assay: Inhibition of recombinant human GST-tagged CLK1 catalytic domain (129 to 484 residues) expressed in Escherichia coli by Z'-LYTE assay
[13] = molecular target: Homeodomain-interacting protein kinase 4 (Homo sapiens, UniProt Q8NE63); assay: Inhibition of recombinant full-length human N-terminal GST-tagged HIPK4 expressed in baculovirus expression system by Z'-LYTE assay
[14] = AUC(0 to 8 hrs) in mouse at 10 mg/kg, po dosed via cassette dosing; type: ADME, organism-based; design: time < 6 hr, dose 10 mg/kg, route oral; details: in vivo
[15] = molecular target: T5, Cell division cycle 7-related protein kinase (Homo sapiens, UniProt O00311); assay: Inhibition of CDC7 in human HeLa cells assessed as inhibition of MCM2 phosphorylation at Ser40 residue in human HeLa cells after 7 hrs by Western blot analysis; type: cell-based
[16] = molecular target: T5, Cell division cycle 7-related protein kinase; assay: Inhibition of ATP-specific reporter probe binding to CDC7 (unknown origin) assessed as equilibrium dissociation constant incubated for 60 mins by proteros reporter displacement assay
[17] = molecular target: T1, CDC7/DBF4 (Cell division cycle 7-related protein kinase/Activator of S phase kinase); assay: Inhibition of N-terminal GST-fused full-length human CDC7 (1 to 574 end residues)/DBF4 (1 to 674 residues) expressed in baculovirus expression system using MCM2 as substrate preincubated with enzyme for 10 mins prior to 1 uM ATP addition by HTRF transcreener ADP assay
[18] = molecular target: T6, Dual specificity tyrosine-phosphorylation-regulated kinase 1B (Homo sapiens, UniProt Q9Y463); assay: Inhibition of recombinant full-length human GST-tagged DYRK1B expressed in baculovirus expression system by Z'-LYTE assay
Myotonin-protein kinase = Myotonin-protein kinase (Homo sapiens, UniProt Q09013); assay: Inhibition of kinase tracer 236 binding to recombinant full-length human GST-tagged DMPK expressed in baculovirus expression system by Lanthascreen Eu kinase binding assay
[19] = molecular target: T5, Cell division cycle 7-related protein kinase; assay: Binding affinity to CDC7 (unknown origin) assessed as equilibrium dissociation constant
[20] = Drug metabolism assessed as (4bS)-2-(3-Methyl-1H-pyrazol-4-yl)-5,6,7,8-tetrahydropyrido-[1',2':3,4]imidazo[1,5-a]thieno[3,2-d]pyrimidin-12(4bH)-one formaldehyde adduct formation by measuring retention time at 5 nmol after 30 mins in presence of excess formaldehyde by QTOF-UPLC analysis; type: physicochemical; details: 0.5 h
[21] = molecular target: CDK9/cyclin T1 (Homo sapiens) (UniProt O60563+P50750); assay: Inhibition of full-length recombinant human His-tagged CDK9/Cyclin T1 expressed in baculovirus expression system at 1000 nM by Adapta kinase assay relative to control
[22] = molecular target: T2, Death-associated protein kinase 1; assay: Inhibition of recombinant human N-terminal GST-tagged DAPK1 catalytic domain (1 to 363 residues) expressed in baculovirus expression system at 1000 nM by Adapta kinase assay relative to control
Mus musculus [23] = assay: Increase in cyclin B1 expression in tumor in BALB/c mouse xenografted with human COLO205 cells at 100 mg/kg, po measured for 16 hrs post-treatment by Western blot analysis; type: functional, organism-based
[24] = molecular target: T4, Dual specificity protein kinase CLK1; assay: Inhibition of recombinant human GST-tagged CLK1 catalytic domain (129 to 484 residues) expressed in Escherichia coli at 1000 nM by Z'-LYTE assay relative to control
[25] = molecular target: Dual specificity protein kinase CLK2 (Homo sapiens) (UniProt P49760); assay: Inhibition of GST-tagged human recombinant CLK2 catalytic domain (137 to 498 residues) expressed in baculovirus expression system at 1000 nM by Z'-LYTE assay relative to control
[26] = molecular target: T6, Dual specificity tyrosine-phosphorylation-regulated kinase 1B; assay: Inhibition of recombinant full-length human GST-tagged DYRK1B expressed in baculovirus expression system at 1000 nM by Z'-LYTE assay relative to control
[27] = molecular target: Casein kinase I isoform gamma-2 (Homo sapiens) (UniProt P78368); assay: Inhibition of recombinant full-length human His-tagged CSNK1G2 expressed in baculovirus expression system at 1000 nM by Z'-LYTE assay relative to control
[28] = molecular target: Serine/threonine-protein kinase 17A (Homo sapiens) (UniProt Q9UEE5); assay: Inhibition of kinase tracer 236 binding to recombinant full-length human GST-tagged DRAK1 expressed in baculovirus expression system at 1000 nM by Lanthascreen Eu kinase binding assay relative to control
Mus musculus [29] = assay: In vivo inhibition of […] in BALB/c mouse xenografted with human COLO205 cells assessed as MCM2 phosphorylation at Ser 41 residue in tumor at 100 mg/kg, po measured for 16 hrs post-treatment by Western blot analysis; type: functional, organism-based
[30] = molecular target: Death-associated protein kinase 3 (Homo sapiens) (UniProt O43293); assay: Inhibition of full-length human GST-tagged DAPK3 expresssed in baculovirus expression system at 1000 nM by Z'-LYTE assay relative to control
[31] = molecular target: Glycogen synthase kinase-3 alpha (Homo sapiens) (UniProt P49840); assay: Inhibition of kinase tracer 236 binding to N-terminal GST-tagged human full length GSK3alpha expressed in baculovirus expression system at 1000 nM by Lanthascreen Eu kinase binding assay relative to control
[32] = molecular target: Glycogen synthase kinase-3 beta (Homo sapiens) (UniProt P49841); assay: Inhibition of recombinant full-length human His-tagged GSK3beta expressed in baculovirus expression system at 1000 nM by Z'-LYTE assay relative to control
[33] = molecular target: T3, Dual specificity tyrosine-phosphorylation-regulated kinase 1A; assay: Inhibition of recombinant full-length human GST-tagged DYRK1A expressed in baculovirus expression system at 1000 nM by Z'-LYTE assay relative to control
[34] = molecular target: Dual specificity protein kinase CLK4 (Homo sapiens) (UniProt Q9HAZ1); assay: Inhibition of kinase tracer 236 binding to recombinant full-length human GST-tagged CLK4 expressed in baculovirus expression system at 1000 nM by Lanthascreen Eu kinase binding assay relative to control
[35] = Drug metabolism assessed as (4bS)-2-(3-Methyl-1H-pyrazol-4-yl)-5,6,7,8-tetrahydropyrido-[1',2':3,4]imidazo[1,5-a]thieno[3,2-d]pyrimidin-12(4bH)-one formaldehyde adduct formation at 5 nmol after 30 mins in presence of excess formaldehyde by QTOF-UPLC analysis
[36] = molecular target: Myotonin-protein kinase (Homo sapiens) (UniProt Q09013); assay: Inhibition of kinase tracer 236 binding to recombinant full-length human GST-tagged DMPK expressed in baculovirus expression system at 1000 nM by Lanthascreen Eu kinase binding assay relative to control
[37] = molecular target: CDK8/Cyclin C (Homo sapiens) (UniProt P49336+P24863); assay: Inhibition of kinase tracer 236 binding to recombinant full-length human His-tagged CDK8/CyclinC expressed in baculovirus expression system at 1000 nM by Lanthascreen Eu kinase binding assay relative to control
[38] = molecular target: Homeodomain-interacting protein kinase 4 (Homo sapiens) (UniProt Q8NE63); assay: Inhibition of recombinant full-length human N-terminal GST-tagged HIPK4 expressed in baculovirus expression system at 1000 nM by Z'-LYTE assay relative to control
Mus musculus [39] = assay: Effect on PARP cleavage in tumor in BALB/c mouse xenografted with human COLO205 cells at 100 mg/kg, po measured for 16 hrs post-treatment by Western blot analysis; type: functional, organism-based

IC50 [1]: 6500 nM
IC50 [2]: 0.41 nM
EC50 (COLO 205 [3]): 130 nM
IC50 [6]: 120 nM
IC50 [9]: 420 nM
IC50 (CDK8/Cyclin C): 351 nM
Cmax [10]: 978 ng/mL
IC50 [11]: 59 nM
IC50 [12]: 310 nM
IC50 [13]: 176 nM
AUC(0-t) at 6 h [14]: 1350 ng·h/mL
IC50 [15]: 36 nM
Kd [16]: 1.96 nM
IC50 [17]: 0.44 nM
IC50 [18]: 78.6 nM
IC50 (Myotonin-protein kinase): 64.6 nM
Compound: Cc1n[nH]cc1-c1cc2nc([C@@H]3CCCCN3)[nH]c(=O)c2s1.Cl.Cl
IC50 [4]: 203 nM
T/C (COLO 205 [5]): 6%
Activity [7]: Non-Toxic
inhibition in vivo at 100 mg/kg (Mus musculus [8]): 72%

Compound: Cc1[nH]ncc1-c1cc2nc([C@@H]3CC4CCN3CC4)[nH]c(=O)c2s1 [SIMUROSERTIB]
IC50 [2]: 0.54 nM
Kd [19]: 0.424 nM
IC50 [6]: 43 nM
IC50 [9]: 430 nM
IC50 [15]: 17 nM
IC50 [17]: 0.26 nM

Compound: Cc1n[nH]cc1-c1cc2nc([C@@H]3CCCCN3)[nH]c(=O)c2s1 [listing 1 of 2 here]
Retention_time [20]: 4.31 min

inhibition [21]: 90%
inhibition [24]: 81%
inhibition [25]: 88%
inhibition [26]: 96%
inhibition [27]: 87%
inhibition [28]: 99%
inhibition [31]: 89%
inhibition [32]: 89%
inhibition [33]: 98%
inhibition [34]: 100%
inhibition [36]: 95%
inhibition [37]: 87%
inhibition [38]: 87%
Compound: Cc1n[nH]cc1-c1cc2nc([C@@H]3CCCCN3)[nH]c(=O)c2s1 [listing 2 of 2 here]
inhibition [22]: 85%
Activity (Mus musculus [23]): Active
inhibition (Mus musculus [29]): inactive
inhibition [30]: 92%
Drug metabolism [35]: Metabolite detected
Activity (Mus musculus [39]): inactive
